For one data set, the system named is REH cells. Kind of data set: Cell viability, CellTiter-Glo 2.0 Assay. As to conditions: free GEM 0 to 30 uM 1 hour, viability at 24 hours. Format: cell-based, human. How it is done:
(§1) Whole human blood was acquired from healthy donors with informed consent and stabilized in K2EDTA tubes (BD Biosciences). hRBCs were purified following reported procedure (Liao et al., 2011), then incubated with either bare mMSNs or protocells (25, 50, 100, 200, and 400 μg/mL) at 37° C. After 3 hours of exposure, samples were centrifuged at 300 g for 3 minutes, then 100 μL of supernatant from each sample was transferred to a 96-well plate. Hemoglobin absorbance was measured using a BioTek microplate reader (Winooski, Vt.) at 541 nm. The percent hemolysis of each sample was quantified using a reported equation (Liao et al., 2011). In addition, we examined the biocompatibility of anti-EGFR targeted protocells in vitro. We incubated about 1.5×10^5 cells/mL of REH and REH+EGFR cell lines with either 12.5, 25, 50, 100, and 200 μg/mL of anti-EGFR targeted protocells in complete medium for 1 hour at 37° C. Cells were washed twice in complete media and transferred to a 96-well plate for 24 hours at 37° C. Cell viability was assessed by CellTiter-Glo® 2.0 Assay as measured by BioTek microplate reader. The cell viability was calculated as a percentage of non-protocell treated sample.
(§2) […] Cell viability was assessed by CellTiter-Glo® 2.0 Assay as measured by BioTek microplate reader. The cell viability was calculated as a percentage of non-protocell treated sample.
(In general: ATP-based viability assays read luminescence as a measure of living cells.)

The next data set concerns REH+EGFR cells. Kind of data set: Cell viability, CellTiter-Glo 2.0 Assay. Format: cell-based, human. As to conditions: free GEM 0 to 30 uM 1 hour, viability at 24 hours. How it is done:
as §1, §2

For data set [1] the following is noted: Federico et al., 2012; cited from earlier work.

Here are results for one molecule from patent US20180344641A1, “MESOPOROUS SILICA NANOPARTICLES AND SUPPORTED LIPID BI-LAYER NANOPARTICLES FOR BIOMEDICAL APPLICATIONS” (priority 2015, published 2018).

For `Nc1ccn([C@@H]2O[C@H](CO)[C@@H](O)C2(F)F)c(=O)n1` [GEM, Gemcitabine], in the data set on REH cells, the “viability of REH cells” value was “Loss in cell viability of REH and REH+EGFR cells”. Further, the “viability of REH+EGFR cells” value in the data set with REH+EGFR cells was “Loss in cell viability of REH and REH+EGFR cells”. The plasma half-life in data set [1] is 8 to 17 min.
